The assay addresses T1, SULT2A1 (Homo sapiens, UniProt Q06520).
T1 construct: expressed from a SULT2A1 vector in HEK293 cells, co-expressed with PAPS synthase EGFP fusions
T1 sequence (Q06520 1-285): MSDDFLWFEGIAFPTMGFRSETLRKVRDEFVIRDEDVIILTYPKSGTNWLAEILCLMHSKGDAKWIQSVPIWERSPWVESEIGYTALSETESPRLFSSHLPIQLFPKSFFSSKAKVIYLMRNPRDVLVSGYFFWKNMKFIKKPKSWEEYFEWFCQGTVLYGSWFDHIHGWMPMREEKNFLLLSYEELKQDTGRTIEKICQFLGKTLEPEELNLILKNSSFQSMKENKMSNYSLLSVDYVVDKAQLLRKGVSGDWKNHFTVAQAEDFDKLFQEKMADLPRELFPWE
The assay is described as follows: DHEA sulfation assay in transfected HEK293 cells. The assay is classed as cell-based. As to conditions: co-expressed PAPS synthase supplies PAPS.

For `C[C@]12CC[C@H](O)CC1=CC[C@@H]1[C@@H]2CC[C@]2(C)C(=O)CC[C@@H]12` [DHEA], the conversion rate result was “co-express PAPS synthase protein variants with cytoplasmic SULT2A1”.
